From PMC6270759, “Constituents of the Roots and Leaves of Ekebergia capensis and Their Potential Antiplasmodial and Cytotoxic Activities” (Molecules, 2014) come the findings set out here.

The subject of data set [1] is chloroquine-sensitive D6 strain of P. falciparum. The experiment in a line: In vitro antiplasmodial assay, (G-3H) hypoxanthine incorporation, D6 strain. Type of data set: cell-based. The following applies: Plasmodium falciparum. Here is the method: (§1) Continuous in vitro cultures of asexual erythrocytic stages of Indochinese chloroquine-resistant W2 and Sierra Leonean chloroquine-sensitive D6 strains of P. falciparum were maintained following the modified procedure described by Trager and Jensen. Drug assay was carried out following a modification of the semiautomated microdilution technique, which measures the ability of the extracts to inhibit the incorporation of (G-^3H) hypoxanthine into the malaria parasite. […] Data was transferred into the software Microsoft Excel and was expressed as the percentage of the untreated controls. The drug concentration required for 50% inhibition of (G-^3H) hypoxanthine incorporation into parasite nucleic acid was calculated with nonlinear regression analysis of the dose-response curve.

In data set [2] the test system is African monkey kidney (vero) cells. The experiment in a line: MTT cytotoxicity assay, vero cells. The following applies: Primates, 48 h, read-out: IC50 Vero. Type of data set: cell-based. The source says: (§2) This assay is based on the ability of a mitochondrial dehydrogenase enzyme from viable cells to cleave the tetrazolium rings of the pale yellow MTT and thereby form dark blue formazan crystals, which are largely impermeable to cell membranes, resulting in their accumulation within healthy cells. The amount of generated formazan is directly proportional to the number of cells. […] Cells were maintained in Eagle’s Minimum Essential Medium (MEM) containing 10% fetal bovine serum (FBS). A cell density of 20.000 cells per well in 100 μL were seeded on 96-well plates and incubated for 12 h at 37 °C and 5% CO2 to attach to the surface. […] The plates were incubated for 48 h at 37 °C and 5% CO2, followed by an addition of 10 µL MTT viability indicator reagent. The plates were incubated for additional 4 h at the same conditions. Next, all media was removed from the plates and 100 µL DMSO was added to dissolve the formazan crystals. The plates were read on a Multiskan EX Labsystems scanning multi-well spectrophotometer at 562 nm, and 620 nm as reference. The results were recorded as optical density (OD) per well at each drug concentration. The data was transferred into the software Microsoft Excel and expressed as percentage of the untreated controls.

For data set [3], the system named is MDA-MB-231 human breast cancer cells. The data set can be described thus: Alamar Blue cytotoxicity assay, MDA-MB-231 cells. Type of data set: cell-based. The following applies: pure compounds, 72 h. The protocol:
Cytotoxicity tests on MDA-MB-231 cells were carried out following a previously described procedure. MDA-MB-231 human breast cancer cells were cultured in Dulbecco’s modified eagle medium (DMEM) supplemented with 10% (v/v) fetal bovine serum, 2 mM L-glutamine, 100 units/mL penicillin and 100 μg/mL streptomycin at 37 °C in humidified 5% CO2. For cytotoxicity assays, cells were seeded in 96-well plates at optimal cell density (10,000 cells per well) to ensure exponential growth for the duration of the assay. After a 24 h preincubation growth, the medium was replaced with experimental medium containing the appropriate drug concentrations or vehicle controls (0.1% or 1.0% v/v DMSO). After 72 h of incubation, cell viability was measured using Alamar Blue reagent (Invitrogen Ab, Lidingö, Sweden) according to the manufacturer’s instructions. Absorbance was measured at 570 nm with 600 nm as a reference wavelength. Results were expressed as the mean ± standard error for six replicates as a percentage of vehicle control (taken as 100%). Experiments were performed independently at least six times. Statistical analyses were performed using a two-tailed Student’s t-test. p < 0.05 was considered to be statistically significant.
For orientation: Alamar Blue is a resazurin reagent that responds to reducing activity.

For data set [4], the system named is chloroquine-resistant W2 strain of P. falciparum. The experiment in a line: In vitro antiplasmodial assay, (G-3H) hypoxanthine incorporation, W2 strain. Type of data set: cell-based. The following applies: Plasmodium falciparum, pure compounds. The protocol: as §1
Data set [5] concerns mouse breast cancer (4T1) cells. The experiment in a line: MTT cytotoxicity assay, 4T1 cells. The following applies: 4T1, 48 h, pure compounds. In kind it is cell-based.
Source text: as §2

The test system of data set [6] is human larynx carcinoma (HEp2) cells. The experiment in a line: MTT cytotoxicity assay, HEp2 cells. Type of data set: cell-based. The following applies: HEp-2, pure compounds, 48 h. The protocol: (§3) A rapid colorimetric assay was carried out using 3-(4,5-dimethylthiazol-2-yl)-2,5-diphenyltetrazolium bromide (MTT). This assay is based on the ability of a mitochondrial dehydrogenase enzyme from viable cells to cleave the tetrazolium rings of the pale yellow MTT and thereby form dark blue formazan crystals, which are largely impermeable to cell membranes, resulting in their accumulation within healthy cells. The amount of generated formazan is directly proportional to the number of cells. In this assay, the mammalian cell lines African monkey kidney (vero), mouse breast cancer (4T1) and human larynx carcinoma (HEp2) were used. Cells were maintained in Eagle’s Minimum Essential Medium (MEM) containing 10% fetal bovine serum (FBS). A cell density of 20.000 cells per well in 100 μL were seeded on 96-well plates and incubated for 12 h at 37 °C and 5% CO2 to attach to the surface. Samples of the tested extracts and isolated compounds were added to the cultured cells in rows H-B over a concentration range of 0.14 to 100 μg/mL, whereas wells 1–8 of row A served as untreated controls and wells 9–12 as blank (1% DMSO, v/v). The plates were incubated for 48 h at 37 °C and 5% CO2, followed by an addition of 10 µL MTT viability indicator reagent. The plates were incubated for additional 4 h at the same conditions. Next, all media was removed from the plates and 100 µL DMSO was added to dissolve the formazan crystals. The plates were read on a Multiskan EX Labsystems scanning multi-well spectrophotometer at 562 nm, and 620 nm as reference. The results were recorded as optical density (OD) per well at each drug concentration. The data was transferred into the software Microsoft Excel and expressed as percentage of the untreated controls. Percentage cytotoxicity (PC) as compared to the untreated controls was calculated as PC = [A − B/A] × 100, where A is the mean OD of the untreated cells and B is the mean OD at each drug concentration. The drug concentration required for 50% inhibition of cell growth was estimated using nonlinear regression analysis of the dose- response curve.
(Tetrazolium dyes change colour on reduction, which living cells bring about.)

Another data set has as its system vero cells. The data set can be described thus: Interaction of oleanonic acid (2) with other triterpenoids, fixed ratios, vero cell cytotoxicity. In kind it is cell-based, African monkey. The following applies: for IC50: Primates, ratio 0:1, in the absence of 2 (for 2: alone), read-out: IC50 (μg/mL), substance alone; for ∑FIC 1:1: ratio of oleanonic acid (2) versus constituent 1:1; for ∑FIC 1:3: ratio of oleanonic acid (2) versus constituent 1:3; for ∑FIC 3:1: ratio of oleanonic acid (2) versus constituent 3:1.
Source text: as §3, with “This” for “A rapid colorimetric assay was carried out using 3-(4,5-dimethylthiazol-2-yl)-2,5-diphenyltetrazolium bromide (MTT). This”, “In this assay, the mammalian cell lines African monkey kidney (vero), mouse breast cancer (4T1) and human larynx carcinoma (HEp2) were used.” left out, “Samples of the tested extracts and isolated compounds were added to the cultured cells in rows H-B over a concentration range of 0.14 to 100 μg/mL, whereas wells 1–8 of row A served as untreated controls and wells 9–12 as blank (1% DMSO, v/v).” left out, “curve. The interaction of oleanonic acid (2) with other triterpenoids was studied using the fixed concentration ratios oleanonic acid: ‘other triterpenoid’ 0:1, 1:3, 1:1, 3:1, 1:0. The vero cell cytotoxicity assay was used, as described above, to evaluate the toxicity of the mixtures. To determine whether there was synergy, additive effect or antagonism, the sum of fractional inhibition concentration (∑FIC) was calculated using the formula Ax/Ay + Bx/By = K, where Ax and Bx are the IC50s when the substances are used in combination, and Ay and By are the IC50s, when the substances are used alone. The data was scored with the scale ∑FIC < 1: synergism, 2 > ∑FIC ≥ 1: additive, 4 > ∑FIC ≥ 2: slight antagonism, ∑FIC ≥ 4: marked antagonism.” for “curve.”

The mark [7] stands for this setting: pure compounds, P. falciparum D6, mean of at least three independent experiments, read-out: IC50 D6.

Read-outs that look alike come from different tables or passages of the source. Marks after values point to notes of the source that are not given here.

`O=c1c(O[C@@H]2O[C@H](CO)[C@@H](O)[C@H](O)[C@H]2O)c(-c2ccc(O)c(O)c2)oc2cc(O)cc(O)c12` [Compound 10, quercetin-3-O-β-D-glucopyranoside]: the IC50 in data set [1] (setting [7]) was 42.9 ± 0.3 µM; in data set [2] (vero cells, MTT), more than 216 µM; in data set [3], more than 216 µM; in data set [4], 105.8 ± 1 µM; in data set [5], more than 216 µM; in data set [6], more than 216 µM.
Consider `CC(=CCCC=C(C)CCC=C(C)CCC(O)C(C)(C)O)CCC=C(C)CCC(O)C(C)(C)O` (centres unmarked) [Compound 7, 2,3,22,23-tetrahydroxy-2,6,10,15,19,23-hexamethyl-6,10,14,18-tetracosatetraene], for which the IC50 in data set [1] (setting [7]) was 56.1 ± 0.4 µM; in data set [2] (vero cells, MTT), 24.7 ± 1.8 µM; in data set [3], more than 209 µM; in data set [4], 64.3 ± 1 µM; in the data set on vero cells, 11 µg/mL; in data set [5] it was 22.5 ± 3.2 µM. The compound further returned an IC50 in data set [6] of 35.5 ± 3.1 µM. The “Interaction with the cytotoxic effect of oleanonic acid (2), in words” value (from here on “Interaction with the cytotoxic effect”) with vero cells is listed as “weak antagonistic effects”. For the same compound, the “∑FIC 1:1” value in the data set with vero cells is 1.9 ^c. Besides, the “∑FIC 1:3” value in the data set on vero cells was 2 ^c. Moreover, the “∑FIC 3:1” value in the data set with vero cells was 2.2 ^c.
On to `CC1(C)CC[C@]2(C(=O)O)CC[C@]3(C)C(=CC[C@@H]4[C@@]5(C)CC[C@@H](O)C(C)(C)[C@@H]5CC[C@]43C)C2C1` (stereo partly drawn) [Compound 3, 3-epi-oleanolic acid], for which the IC50 is 205 ± 3 µM in data set [1] (setting [7]); 58 ± 5.2 µM in data set [2] (vero cells, MTT); 36.54 ± 0.02 µM in data set [3]; 179 ± 6 µM in data set [4]; 22.5 µg/mL with vero cells; 30.3 ± 2.6 µM in data set [5]. Besides, the IC50 in data set [6] worked out at 29.8 ± 0.3 µM. Besides, in the data set on vero cells, the “Interaction with the cytotoxic effect” value is reported as “markedly antagonized”. Further, in the data set on vero cells, the “∑FIC 1:1” value was 5.2 ^c. Also, the “∑FIC 1:3” value in the data set on vero cells is 9.8 ^c. In addition, in the data set on vero cells, the “∑FIC 3:1” value is 5.8 ^c.
Regarding `CC(=CCCC=C(C)CCC=C(C)CCC(O)C(C)(O)CO)CCC=C(C)CCC(O)C(C)(C)O` (centres unmarked) [Compound 6, 2-hydroxymethyl-2,3,22,23-tetrahydroxy-6,10,15,19,23-pentamethyl-6,10,14,18-tetracosatetraene], the IC50 in data set [1] (setting [7]) came to 27.1 ± 0.4 µM; in data set [2] (vero cells, MTT) it was 35.7 ± 2.1 µM; in data set [3] it was 36.69 ± 0.04 µM; in data set [4] it was 66.9 ± 0.6 µM; in the data set with vero cells, 13.6 µg/mL; in data set [5], 30.2 ± 1.3 µM. Further, the IC50 in data set [6] was determined as 38.4 ± 0.8 µM. Also, the “Interaction with the cytotoxic effect” value in the data set with vero cells is on record as “weak antagonistic effects”. Moreover, the “∑FIC 1:1” value with vero cells is reported as 2.2 ^c. For the same compound, the “∑FIC 1:3” value in the data set on vero cells is 2.2 ^c. In the data set with vero cells, the “∑FIC 3:1” value is recorded as 2.3 ^c.
Turning to `O=c1c(O[C@@H]2O[C@H](CO)[C@@H](O)[C@H](O)[C@H]2O)c(-c2ccc(O)cc2)oc2cc(O)cc(O)c12` [Compound 9, kaempferol-3-O-β-D-glucopyranoside], the IC50 in data set [1] (setting [7]) was 97.1 ± 1 µM; in data set [2] (vero cells, MTT), more than 223 µM; in data set [3], more than 223 µM; in data set [4] it was 105.8 ± 0.5 µM; in data set [5], more than 223 µM; in data set [6] it was more than 223 µM.
As for `CCN(CC)CCCC(C)Nc1ccnc2cc(Cl)ccc12` (centres unmarked) [Chloroquine, reference compound], the IC50 in data set [1] (D6, read-out: IC50(D6)) was 0.0077 µM; in data set [2] (Vero), 43.9 µM.
For `CC(C)C12CCC3(CCC4(C)C(CCC5C6(C)CCC(=O)C(C)(C)C6CCC54C)C3O1)CO2` (centres unmarked) [Compound 5, ekeberin A], the IC50 is 182 ± 6 µM in data set [1] (setting [7]); more than 219 µM in data set [2] (vero cells, MTT); more than 219 µM in data set [4]; more than 100 µg/mL in the data set with vero cells; 163 ± 4.3 µM in data set [5]; more than 219 µM in data set [6]. Besides, the “Interaction with the cytotoxic effect” value in the data set with vero cells is recorded as “antagonized by high concentrations of ekeberin A (5), but at lower relative concentrations 5 enhanced the toxicity of 2”. Moreover, the “∑FIC 1:1” value in the data set on vero cells is <1.4 ^c. Further, in the data set on vero cells, the “∑FIC 1:3” value is given as <4 ^c. Besides, in the data set on vero cells, the “∑FIC 3:1” value is recorded as <1.3 ^c.
For `CC1(C)CC[C@]2(C(=O)O)CC[C@]3(C)C(=CC[C@@H]4[C@@]5(C)CCC(=O)C(C)(C)[C@@H]5CC[C@]43C)[C@@H]2C1` [Compound 2, oleanonic acid], the IC50 in data set [1] (setting [7]) was 38.8 ± 0.5 µM; in data set [2] (vero cells, MTT), 35.8 ± 1.3 µM; in data set [3], more than 212 µM; in data set [4], 76.7 ± 4 µM; in the data set with vero cells, 14.8 µg/mL; in data set [6], 1.4 ± 0.1 µM.
Regarding `COC(=O)C[C@H]1C(C)(C)[C@H](O)[C@@H]2CC3=C4CC(=O)O[C@@H](c5ccoc5)[C@]4(C)CC[C@@H]3[C@@]1(C)C2=O` [Compound 8, proceranolide], the IC50 in data set [1] (setting [7]) was 84.7 ± 0.8 µM; in data set [2] (vero cells, MTT) it was more than 213 µM; in data set [4], 150 ± 3 µM; in data set [5] it was more than 213 µM; in data set [6] it was more than 213 µM.
